Read-outs that look alike come from different tables or passages of the source.

Consider 2 compounds from patent US20130071340A1, “POLYOL PARTIAL ESTERS FOR USE IN COSMETICS” (priority 2010, published 2013).

Data set [1] can be described thus: UV filter solubility in the emollients. Conditions: maximum soluble amount of ethylhexyl triazone (Uvinul T 150) in the emollient at 22 °C. The data set is classed as physicochemical. From the text:
This operation was repeated until the maximum soluble amount of the UV filter was exceeded. At higher concentrations, often a longer stirring time of several hours is necessary for complete dissolution. When in this way the maximum concentration had been determined approximately, for fine determination the concentration range was repeated around this maximum concentration with smaller initial weighed amounts of the UV filter.

Consider `CCCCCCCC(=O)OCC(O)CO` (centres unmarked) [Glyceryl monocaprylate], for which the “Solubility in wt % in the test emollients” value reads like this: (test emollient: Isohexadecane) “at 75% solid,”; (test emollient: Mineral oil) less than 5% wt %; (test emollient: Octyldodecanol) “at 75% solid,”; (test emollient: Oleyl erucate) less than 50% wt %.

PPG-15 stearyl ether: in data set [1], the “UV filter solubility: Ethylhexyl triazone” value was 7.0%.
